Source: patent publication US11285218B2, “Degradation of bromodomain-containing protein 9 (BRD9) by conjugation of BRD9 inhibitors with E3 ligase ligand and methods of use” (Dana-Farber Cancer Institute, Inc., priority 2016, dated 2022)
Entries after “also recorded” stand apart in the source; their conditions may differ.

What was measured:
[1] = test system: 32 members of the human bromodomain family; experiment: BromoScan single-point screen, panel profile; type: binding; conditions: single-point 1 μM, 32 bromodomains; in words
Source text: (§1) The BromoScan is an assay that measures the engagement of compounds with bromodomain proteins by utilizing DNA-tagged bromodomain and immobilized ligand attached to solid support. In the control test, DNA-tagged bromodomain binds to the ligand and the bromodomain is captured on the solid support. Compounds that compete for the bromodomain binding location on the ligand will prevent the bromodomain from binding, resulting in less protein captured on the solid support.

[2] = test system: MM.1S multiple myeloma line; experiment: ATPlite viability assay, MM.1S; conditions: 72 hour treatment, in words
Protocol: 500 cells/well were plated at a volume of 40 μL/well in white tissue culture treated 384 well assay plates (Thermo Scientific) before DMSO compound stock was added from pre-diluted plates by pin transfer using a Janus Workstation (PerkinElmer, USA). […] Assay plates were allowed to equilibrate to RT for 30 min before reconstituted ATPlite 1 Step reagent (Perkin Elmer) was dispensed at 1:1 volume/well by EL406 automated liquid handler (Biotek, USA).

SMARCA2 = biological target: T1, SMARCA2 (Homo sapiens, UniProt P51531); experiment: BromoScan single-point screen; type: binding; conditions: percent of protein captured on solid support vs control
T1 construct: utilizing DNA-tagged bromodomain and immobilized ligand attached to solid support
Source text: as §1

CREBBP = biological target: T2, CREBBP (Homo sapiens, UniProt Q92793); experiment: BromoScan single-point screen; type: binding; conditions: percent of protein captured on solid support vs control
T2 construct: utilizing DNA-tagged bromodomain and immobilized ligand attached to solid support
Source text: as §1

BRD1 = biological target: T3, BRD1 (Homo sapiens, UniProt O95696); experiment: BromoScan single-point screen; type: binding; conditions: percent of protein captured on solid support vs control
T3 construct: utilizing DNA-tagged bromodomain and immobilized ligand attached to solid support
Source text: as §1

TRIM24 (PHD, Bromo.) = biological target: T4, TRIM24 (PHD, Bromo.) (Homo sapiens, UniProt O15164); experiment: BromoScan single-point screen; type: binding; conditions: percent of protein captured on solid support vs control
T4 construct: utilizing DNA-tagged bromodomain and immobilized ligand attached to solid support
Source text: as §1

BRPF1 = biological target: T5, BRPF1 (Homo sapiens, UniProt P55201); experiment: BromoScan single-point screen; type: binding; conditions: percent of protein captured on solid support vs control
T5 construct: utilizing DNA-tagged bromodomain and immobilized ligand attached to solid support
Source text: as §1

BRDT(2) = biological target: T6, BRDT(2) (Homo sapiens, UniProt Q58F21); experiment: BromoScan single-point screen; type: binding; conditions: percent of protein captured on solid support vs control
T6 construct: utilizing DNA-tagged bromodomain and immobilized ligand attached to solid support
Source text: as §1

EP300 = biological target: T7, EP300 (Homo sapiens, UniProt Q09472); experiment: BromoScan single-point screen; type: binding; conditions: percent of protein captured on solid support vs control
T7 construct: utilizing DNA-tagged bromodomain and immobilized ligand attached to solid support
Source text: as §1

GCN5L2 = biological target: T8, GCN5L2 (Homo sapiens, UniProt Q92830); experiment: BromoScan single-point screen; type: binding; conditions: percent of protein captured on solid support vs control
T8 construct: utilizing DNA-tagged bromodomain and immobilized ligand attached to solid support
Source text: as §1

SMARCA4 = biological target: T9, SMARCA4 (Homo sapiens, UniProt P51532); experiment: BromoScan single-point screen; type: binding; conditions: percent of protein captured on solid support vs control
T9 construct: utilizing DNA-tagged bromodomain and immobilized ligand attached to solid support
Source text: as §1

TAF1L(2) = biological target: T10, TAF1L(2) (Homo sapiens, UniProt Q8IZX4); experiment: BromoScan single-point screen; type: binding; conditions: percent of protein captured on solid support vs control
T10 construct: utilizing DNA-tagged bromodomain and immobilized ligand attached to solid support
Source text: as §1

TAF1(2) = biological target: T11, TAF1(2) (Homo sapiens, UniProt P21675); experiment: BromoScan single-point screen; type: binding; conditions: percent of protein captured on solid support vs control
T11 construct: utilizing DNA-tagged bromodomain and immobilized ligand attached to solid support
Source text: as §1

BAZ^2B = biological target: T12, BAZ^2B (Homo sapiens, UniProt Q9UIF8); experiment: BromoScan single-point screen; type: binding; conditions: percent of protein captured on solid support vs control
T12 construct: utilizing DNA-tagged bromodomain and immobilized ligand attached to solid support
Source text: as §1

ATAD2B = biological target: T13, ATAD2B (Homo sapiens, UniProt Q9ULI0); experiment: BromoScan single-point screen; type: binding; conditions: percent of protein captured on solid support vs control
T13 construct: utilizing DNA-tagged bromodomain and immobilized ligand attached to solid support
Source text: as §1

BRPF3 = biological target: T14, BRPF3 (Homo sapiens, UniProt Q9ULD4); experiment: BromoScan single-point screen; type: binding; conditions: percent of protein captured on solid support vs control
T14 construct: utilizing DNA-tagged bromodomain and immobilized ligand attached to solid support
Source text: as §1

BRD3(1) = biological target: T15, BRD3(1) (Homo sapiens, UniProt Q15059); experiment: BromoScan single-point screen; type: binding; conditions: percent of protein captured on solid support vs control
T15 construct: utilizing DNA-tagged bromodomain and immobilized ligand attached to solid support
Source text: as §1

FALZ = biological target: T16, FALZ (Homo sapiens, UniProt Q12830); experiment: BromoScan single-point screen; type: binding; conditions: percent of protein captured on solid support vs control
T16 construct: utilizing DNA-tagged bromodomain and immobilized ligand attached to solid support
Source text: as §1

PBRM1(2) = biological target: T17, PBRM1(2) (Homo sapiens, UniProt Q86U86); experiment: BromoScan single-point screen; type: binding; conditions: percent of protein captured on solid support vs control
T17 construct: utilizing DNA-tagged bromodomain and immobilized ligand attached to solid support
Source text: as §1

BRD2(1) = biological target: T18, BRD2(1) (Homo sapiens, UniProt P25440); experiment: BromoScan single-point screen; type: binding; conditions: percent of protein captured on solid support vs control
T18 construct: utilizing DNA-tagged bromodomain and immobilized ligand attached to solid support
Source text: as §1

BRD7 [3] = biological target: T19, BRD7 (Homo sapiens, UniProt Q9NPI1); experiment: BromoScan single-point screen; type: binding; conditions: percent of protein captured on solid support vs control
T19 construct: utilizing DNA-tagged bromodomain and immobilized ligand attached to solid support
Source text: as §1
T19 sequence (Q9NPI1 131-235 limits assumed): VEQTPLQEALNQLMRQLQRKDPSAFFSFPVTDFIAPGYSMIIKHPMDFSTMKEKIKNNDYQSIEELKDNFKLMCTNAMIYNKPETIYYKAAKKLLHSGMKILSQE

ATAD2A = biological target: T20, ATAD2A (Homo sapiens, UniProt Q6PL18); experiment: BromoScan single-point screen; type: binding; conditions: percent of protein captured on solid support vs control
T20 construct: utilizing DNA-tagged bromodomain and immobilized ligand attached to solid support
Source text: as §1

WDR9(2) = biological target: T21, WDR9(2) (Homo sapiens, UniProt Q9NSI6); experiment: BromoScan single-point screen; type: binding; conditions: percent of protein captured on solid support vs control
T21 construct: utilizing DNA-tagged bromodomain and immobilized ligand attached to solid support
Source text: as §1

PCAF = biological target: T22, PCAF (Homo sapiens, UniProt Q92831); experiment: BromoScan single-point screen; type: binding; conditions: percent of protein captured on solid support vs control
T22 construct: utilizing DNA-tagged bromodomain and immobilized ligand attached to solid support
Source text: as §1

BRD2(2) = biological target: T23, BRD2(2) (Homo sapiens, UniProt P25440); experiment: BromoScan single-point screen; type: binding; conditions: percent of protein captured on solid support vs control
T23 construct: utilizing DNA-tagged bromodomain and immobilized ligand attached to solid support
Source text: as §1

BAZ^2A = biological target: T24, BAZ^2A (Homo sapiens, UniProt Q9UIF9); experiment: BromoScan single-point screen; type: binding; conditions: percent of protein captured on solid support vs control
T24 construct: utilizing DNA-tagged bromodomain and immobilized ligand attached to solid support
Source text: as §1

BRD3(2) = biological target: T25, BRD3(2) (Homo sapiens, UniProt Q15059); experiment: BromoScan single-point screen; type: binding; conditions: percent of protein captured on solid support vs control
T25 construct: utilizing DNA-tagged bromodomain and immobilized ligand attached to solid support
Source text: as §1

PBRM1(5) = biological target: T26, PBRM1(5) (Homo sapiens, UniProt Q86U86); experiment: BromoScan single-point screen; type: binding; conditions: percent of protein captured on solid support vs control
T26 construct: utilizing DNA-tagged bromodomain and immobilized ligand attached to solid support
Source text: as §1

CECR2 = biological target: T27, CECR2 (Homo sapiens, UniProt Q9BXF3); experiment: BromoScan single-point screen; type: binding; conditions: percent of protein captured on solid support vs control
T27 construct: utilizing DNA-tagged bromodomain and immobilized ligand attached to solid support
Source text: as §1

BRDT(1) = biological target: T28, BRDT(1) (Homo sapiens, UniProt Q58F21); experiment: BromoScan single-point screen; type: binding; conditions: percent of protein captured on solid support vs control
T28 construct: utilizing DNA-tagged bromodomain and immobilized ligand attached to solid support
Source text: as §1

BRD7 [4] = biological target: BRD7 (Homo sapiens, UniProt Q9NPI1); experiment: BRD7 immunoblot in MOLM-13; conditions: MOLM-13, 4 hour treatment
Target sequence in this assay (Q9NPI1 whole entry): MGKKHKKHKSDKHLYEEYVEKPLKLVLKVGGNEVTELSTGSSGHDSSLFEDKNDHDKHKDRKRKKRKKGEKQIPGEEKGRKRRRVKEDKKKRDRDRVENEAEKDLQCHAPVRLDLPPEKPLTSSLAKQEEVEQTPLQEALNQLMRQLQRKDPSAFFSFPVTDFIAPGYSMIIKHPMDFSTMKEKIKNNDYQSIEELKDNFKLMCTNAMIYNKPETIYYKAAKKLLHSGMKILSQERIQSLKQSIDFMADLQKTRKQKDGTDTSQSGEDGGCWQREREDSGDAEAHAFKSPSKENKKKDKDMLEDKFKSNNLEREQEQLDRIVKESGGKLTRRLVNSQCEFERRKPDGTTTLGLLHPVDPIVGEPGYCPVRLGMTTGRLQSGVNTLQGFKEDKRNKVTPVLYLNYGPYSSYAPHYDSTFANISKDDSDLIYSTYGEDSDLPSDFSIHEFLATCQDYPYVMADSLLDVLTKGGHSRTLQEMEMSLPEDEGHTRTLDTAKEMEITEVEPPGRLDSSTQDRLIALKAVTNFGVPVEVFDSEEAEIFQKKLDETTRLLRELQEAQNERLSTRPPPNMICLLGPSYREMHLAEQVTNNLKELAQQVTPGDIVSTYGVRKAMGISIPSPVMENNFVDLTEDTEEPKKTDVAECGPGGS
Protocol: In additional experiments, cells were washed with PBS, before being lysed in RIPA buffer supplemented with 1×HALT™ protease inhibitor cocktail (Thermo Scientific) for 10 min on ice, followed by low-amplitude sonication for 10 seconds at 4° C. […] In soluble material was removed by centrifugation at 20,000×g for 20 min before protein content was quantified by BCA assay (Pierce). […] Blots were imaged using fluorescence-labeled secondary antibodies (LI-COR) on the OdysseyCLxImager (LI-COR).

TRIM33 (PHD, Bromo.) = experiment: BromoScan single-point screen; type: binding, human; conditions: percent of protein captured on solid support vs control
Source text: as §1

T13 sequence (Q9ULI0 951-1066 limits assumed): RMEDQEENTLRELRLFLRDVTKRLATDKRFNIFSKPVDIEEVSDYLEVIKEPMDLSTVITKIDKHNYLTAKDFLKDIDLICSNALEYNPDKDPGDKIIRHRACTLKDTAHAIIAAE
T2 sequence (Q92793 1085-1192 limits assumed): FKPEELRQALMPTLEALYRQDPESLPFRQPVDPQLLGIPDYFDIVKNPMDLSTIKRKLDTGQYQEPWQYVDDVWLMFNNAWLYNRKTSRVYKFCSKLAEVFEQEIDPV
T14 sequence (Q9ULD4 589-693 limits assumed): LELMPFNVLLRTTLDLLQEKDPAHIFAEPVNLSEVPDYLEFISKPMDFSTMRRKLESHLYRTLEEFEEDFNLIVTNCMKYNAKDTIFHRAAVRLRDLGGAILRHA
T10 sequence (Q8IZX4 1517-1626 limits assumed): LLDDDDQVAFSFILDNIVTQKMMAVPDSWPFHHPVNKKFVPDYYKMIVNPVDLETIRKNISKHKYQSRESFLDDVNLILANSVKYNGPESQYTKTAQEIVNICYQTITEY
T9 sequence (P51532 1453-1564 limits assumed): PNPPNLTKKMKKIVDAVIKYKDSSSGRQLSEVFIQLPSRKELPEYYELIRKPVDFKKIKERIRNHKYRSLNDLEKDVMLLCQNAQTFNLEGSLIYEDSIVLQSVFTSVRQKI
T18 sequence (P25440 74-180 limits assumed): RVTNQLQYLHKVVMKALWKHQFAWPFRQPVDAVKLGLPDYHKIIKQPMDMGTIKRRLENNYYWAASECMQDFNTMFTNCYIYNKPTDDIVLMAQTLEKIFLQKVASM
T24 sequence (Q9UIF9 1793-1897 limits assumed): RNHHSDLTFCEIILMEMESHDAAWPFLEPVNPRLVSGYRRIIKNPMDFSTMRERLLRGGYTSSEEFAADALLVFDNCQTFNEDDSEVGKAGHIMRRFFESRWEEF
T20 sequence (Q6PL18 980-1092 limits assumed): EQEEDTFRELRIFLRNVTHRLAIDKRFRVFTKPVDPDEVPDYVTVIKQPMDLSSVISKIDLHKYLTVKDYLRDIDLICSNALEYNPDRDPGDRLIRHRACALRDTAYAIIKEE
T12 sequence (Q9UIF8 2060-2164 limits assumed): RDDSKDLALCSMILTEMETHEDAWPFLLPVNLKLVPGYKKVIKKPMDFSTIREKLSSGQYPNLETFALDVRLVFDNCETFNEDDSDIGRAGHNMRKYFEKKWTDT
T15 sequence (Q15059 34-140 limits assumed): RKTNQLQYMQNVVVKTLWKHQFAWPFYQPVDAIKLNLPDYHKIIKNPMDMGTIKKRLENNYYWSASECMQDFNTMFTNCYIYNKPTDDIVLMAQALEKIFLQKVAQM
T7 sequence (Q09472 1049-1156 limits assumed): as the sequence (Q92793 1085-1192 limits assumed) above, with N47S, V73I, F93Y, A98S counted along it
T27 sequence (Q9BXF3 434-538 limits assumed): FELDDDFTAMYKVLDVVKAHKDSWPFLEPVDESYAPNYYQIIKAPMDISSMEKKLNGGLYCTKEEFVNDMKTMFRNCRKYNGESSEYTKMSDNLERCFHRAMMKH
T26 sequence (Q86U86 653-763 limits assumed): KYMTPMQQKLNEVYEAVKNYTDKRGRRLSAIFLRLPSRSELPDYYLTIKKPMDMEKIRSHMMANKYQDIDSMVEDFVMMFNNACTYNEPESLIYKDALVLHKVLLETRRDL
T3 sequence (O95696 562-666 limits assumed): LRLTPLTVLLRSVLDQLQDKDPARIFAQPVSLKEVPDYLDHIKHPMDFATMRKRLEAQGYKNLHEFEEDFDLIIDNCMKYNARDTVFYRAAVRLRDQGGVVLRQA
T11 sequence (P21675 1519-1628 limits assumed): as the sequence (Q8IZX4 1517-1626 limits assumed) above, with M46V, V51M, I102V, I107L counted along it
T25 sequence (Q15059 306-415 limits assumed): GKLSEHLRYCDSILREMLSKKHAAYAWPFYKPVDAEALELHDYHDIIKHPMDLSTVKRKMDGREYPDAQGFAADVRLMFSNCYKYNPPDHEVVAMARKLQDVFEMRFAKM
T21 sequence (Q9NSI6 1313-1418 limits assumed): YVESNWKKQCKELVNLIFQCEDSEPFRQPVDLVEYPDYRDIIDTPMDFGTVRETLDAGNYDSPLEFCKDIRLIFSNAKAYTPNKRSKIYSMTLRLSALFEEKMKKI
T5 sequence (P55201 628-732 limits assumed): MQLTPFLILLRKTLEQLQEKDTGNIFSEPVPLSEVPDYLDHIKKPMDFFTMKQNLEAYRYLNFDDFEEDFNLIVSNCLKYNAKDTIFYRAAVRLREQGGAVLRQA
T17 sequence (Q86U86 177-287 limits assumed): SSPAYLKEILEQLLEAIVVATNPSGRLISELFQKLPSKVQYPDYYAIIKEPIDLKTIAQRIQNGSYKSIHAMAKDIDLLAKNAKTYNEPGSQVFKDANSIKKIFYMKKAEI
T8 sequence (Q92830 728-832 limits assumed): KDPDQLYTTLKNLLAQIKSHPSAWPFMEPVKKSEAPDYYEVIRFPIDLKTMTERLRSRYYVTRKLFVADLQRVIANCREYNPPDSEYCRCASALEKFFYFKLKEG
T23 sequence (P25440 344-453 limits assumed): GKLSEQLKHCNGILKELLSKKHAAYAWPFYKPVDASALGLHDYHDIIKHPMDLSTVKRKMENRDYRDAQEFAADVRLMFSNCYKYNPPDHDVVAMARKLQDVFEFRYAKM
T1 sequence (P51531 1378-1506 limits assumed): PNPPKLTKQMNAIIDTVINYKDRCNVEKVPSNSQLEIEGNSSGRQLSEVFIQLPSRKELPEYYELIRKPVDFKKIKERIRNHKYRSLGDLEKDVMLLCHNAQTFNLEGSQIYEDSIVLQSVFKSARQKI
T22 sequence (Q92831 723-827 limits assumed): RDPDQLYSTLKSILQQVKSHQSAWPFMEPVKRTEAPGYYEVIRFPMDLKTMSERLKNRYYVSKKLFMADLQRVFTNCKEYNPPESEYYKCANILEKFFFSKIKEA
T4 sequence (O15164 824-1006 limits assumed): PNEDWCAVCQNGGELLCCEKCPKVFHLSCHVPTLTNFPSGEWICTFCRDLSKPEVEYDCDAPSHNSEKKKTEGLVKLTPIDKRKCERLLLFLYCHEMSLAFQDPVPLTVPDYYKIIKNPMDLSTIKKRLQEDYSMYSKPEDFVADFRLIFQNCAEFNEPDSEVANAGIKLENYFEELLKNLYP

COc1cc(-c2cn(C)c(=O)c3cnccc23)cc(OC)c1CN(C)CC(=O)NCCOCCOCCNc1cccc2c1C(=O)N(C1CCC(=O)NC1=O)C2=O (centres unmarked) [Compound I-25]
bromodomain interaction profile [1]: exclusive interaction with BRD9; also recorded: exclusively interacts with BRD9
efficacy on viability [2]: comparable efficacy
% Ctrl @ 1 μM (SMARCA2): 70 % Ctrl
% Ctrl @ 1 μM (CREBBP): 88 % Ctrl
% Ctrl @ 1 μM (BRD1): 75 % Ctrl
% Ctrl @ 1 μM (TRIM24 (PHD, Bromo.)): 98 % Ctrl
% Ctrl @ 1 μM (BRPF1): 75 % Ctrl
% Ctrl @ 1 μM (BRDT(2)): 83 % Ctrl
% Ctrl @ 1 μM (EP300): 88 % Ctrl
% Ctrl @ 1 μM (GCN5L2): 77 % Ctrl
% Ctrl @ 1 μM (SMARCA4): 57 % Ctrl
% Ctrl @ 1 μM (TAF1L(2)): 80 % Ctrl
% Ctrl @ 1 μM (TAF1(2)): 63 % Ctrl
% Ctrl @ 1 μM (BAZ^2B): 75 % Ctrl
% Ctrl @ 1 μM (ATAD2B): 81 % Ctrl
% Ctrl @ 1 μM (BRPF3): 86 % Ctrl
% Ctrl @ 1 μM (BRD3(1)): 87 % Ctrl
% Ctrl @ 1 μM (FALZ): 79 % Ctrl
% Ctrl @ 1 μM (PBRM1(2)): 79 % Ctrl
% Ctrl @ 1 μM (BRD2(1)): 81 % Ctrl
% Ctrl @ 1 μM (BRD7 [3]): 25 % Ctrl
% Ctrl @ 1 μM (ATAD2A): 94 % Ctrl
% Ctrl @ 1 μM (WDR9(2)): 86 % Ctrl
% Ctrl @ 1 μM (PCAF): 67 % Ctrl
% Ctrl @ 1 μM (BRD2(2)): 93 % Ctrl
% Ctrl @ 1 μM (BAZ^2A): 62 % Ctrl
% Ctrl @ 1 μM (BRD3(2)): 85 % Ctrl
% Ctrl @ 1 μM (PBRM1(5)): 89 % Ctrl
% Ctrl @ 1 μM (CECR2): 14 % Ctrl
% Ctrl @ 1 μM (BRDT(1)): 90 % Ctrl
BRD7 degradation (immunoblot) (BRD7 [4]): not able to induce degradation of BRD7 at any of the concentrations
% Ctrl @ 1 μM (TRIM33 (PHD, Bromo.)): 100 % Ctrl
